Results taken from ChEMBL document CHEMBL4483862, “Open-source discovery of chemical leads for next-generation chemoprotective antimalarials” (2018).
pIC50: −log10 of the molar value.

System: Plasmodium berghei
Assay: Luciferase/luciferin-expressing antifolate-resistant parasites were used to infect a culture of HepG2 cells that were pre-incubated with compounds. Infected hepatocytes emit light due to the luciferase reaction. Assay results are presented as the percent inhibition of light emission compared to control. […]
Type: functional
Conditions: sporozoite; for IC90: read-out: LUCIFERASE INFECTION ASSAY - IC90
[1] = read-out: LUCIFERASE INFECTION ASSAY - IC50

| Compound | pIC50 [1] | IC90 [µM] | further results |
| --- | --- | --- | --- |
| Cc1ccc(Cn2nc(C)cc2C(=O)Sc2ccccc2)cc1 | < 4.99 | > 10.2 | – |
| CC(C)S(=O)(=O)c1csc(NC(=O)Nc2ccc(Cl)cc2)c1 | – | 3.33 | pIC50 (PBLUC_HILL_SLOPE 17.2, PBLUC_R_SQUARED 0.385, read-out: LUCIFERASE INFECTION ASSAY - IC50): 5.53 |
| COc1ccccc1Nc1ncccc1C(=O)Nc1nc2ccccc2[nH]1 | – | 3.78 | pIC50 (HEPG2TOX_HILL_SLOPE 3.87, HEPG2TOX_R_SQUARED 0.988, PBLUC_HILL_SLOPE 17.6, PBLUC_R_SQUARED 0.638, read-out: LUCIFERASE INFECTION ASSAY - IC50): 5.48 |
| COc1ccc(Nc2cc3c(cn2)cc(-c2ccc(C(=O)N(C)C)cc2)n3Cc2ccccc2)cc1 | – | 9.34 | pIC50 (HEPG2TOX_HILL_SLOPE 6.65, HEPG2TOX_R_SQUARED 0.257, PBLUC_HILL_SLOPE 26.3, PBLUC_R_SQUARED 0.641, read-out: LUCIFERASE INFECTION ASSAY - IC50): 5.07 |
| CC(OC(=O)c1ccccc1Nc1ccccc1)C(=O)NC1CC1 (stereo not drawn) | – | > 10 | pIC50 (PBLUC_HILL_SLOPE 8.51, PBLUC_R_SQUARED 0.0555, read-out: LUCIFERASE INFECTION ASSAY - IC50): 5.06 |
| Cc1ccc(Cn2nc(C)cc2C(=O)Sc2ccc(Cl)cc2)cc1 | – | > 9.25 | pIC50 (FFLUC_HILL_SLOPE 19.8, FFLUC_R_SQUARED 0.763, PBLUC_HILL_SLOPE 2.54, PBLUC_R_SQUARED 0.663, read-out: LUCIFERASE INFECTION ASSAY - IC50): 5.24 |
| CN(C)S(=O)(=O)c1cccc(NC(=O)c2nc(Cl)c(Cl)c(Cl)c2Cl)c1 | – | > 10 | pIC50 (HEPG2TOX_HILL_SLOPE 12.2, HEPG2TOX_R_SQUARED 0.865, PBLUC_HILL_SLOPE 2.73, PBLUC_R_SQUARED 0.48, read-out: LUCIFERASE INFECTION ASSAY - IC50): < 5.00 |
| CC(Cn1cccn1)NCc1ccc(F)c(F)c1 (stereo not drawn) | < 5.00 | > 10 | – |
| O=S(=O)(Cc1noc(-c2cccs2)n1)c1ccc(F)cc1 | < 4.99 | > 10.2 | – |
| COc1cccc(/C=C(\c2nc3ccccc3[nH]2)c2nc3ccccc3s2)c1 | < 5.00 | > 10 | – |
| CCc1cc2c(COC(=O)c3cc(C(C)=O)cn3C)cc(=O)oc2cc1O | – | > 10 | pIC50 (PBLUC_HILL_SLOPE 9.37, PBLUC_R_SQUARED 0.164, read-out: LUCIFERASE INFECTION ASSAY - IC50): 5.06 |
| CCOC(=O)c1c(NC(=O)C2Cc3ccccc3CN2S(=O)(=O)c2cccs2)sc2c1CCCC2 (stereo not drawn) | – | > 10 | pIC50 (HEPG2TOX_HILL_SLOPE 0.167, HEPG2TOX_R_SQUARED 0.0943, PBLUC_HILL_SLOPE 2.23, PBLUC_R_SQUARED 0.122, read-out: LUCIFERASE INFECTION ASSAY - IC50): 5.19 |
| CCN(Cc1ccccc1)c1nc2ccccc2nc1NS(=O)(=O)c1cc([N+](=O)[O-])ccc1C | – | > 10 | pIC50 (FFLUC_HILL_SLOPE 11.4, FFLUC_R_SQUARED 0.293, HEPG2TOX_HILL_SLOPE 1.92, HEPG2TOX_R_SQUARED 0.959, PBLUC_HILL_SLOPE 2.98, PBLUC_R_SQUARED 0.638, read-out: LUCIFERASE INFECTION ASSAY - IC50): 5.10 |
| O=C(NC1CC1)c1ccc(-c2cn3c(-c4ccc(O)cc4)cnc3cn2)cc1 | – | > 8.91 | pIC50 (HEPG2TOX_HILL_SLOPE 9.19, HEPG2TOX_R_SQUARED 0.833, PBLUC_HILL_SLOPE 2.2, PBLUC_R_SQUARED 0.157, read-out: LUCIFERASE INFECTION ASSAY - IC50): 5.11 |
| CCN(CC)c1ccc(/C=C2\CCc3cnn(-c4nc(-c5ccccc5)cs4)c32)cc1 | – | > 10 | pIC50 (FFLUC_HILL_SLOPE 3.85, FFLUC_R_SQUARED 0.639, read-out: LUCIFERASE INFECTION ASSAY - IC50): < 5.00 |
| CCCN1C(=O)c2[nH]nc(-c3ccccc3O)c2C1c1ccc(Cl)cc1 (stereo not drawn) | – | > 8.97 | pIC50 (FFLUC_HILL_SLOPE 13.6, FFLUC_R_SQUARED 0.713, HEPG2TOX_HILL_SLOPE 5.14, HEPG2TOX_R_SQUARED 0.579, read-out: LUCIFERASE INFECTION ASSAY - IC50): < 5.05 |
| CCCOc1ccc(C(=O)CCC(=O)NNC(=O)c2ccncc2)cc1 | – | 5.4 | pIC50 (HEPG2TOX_HILL_SLOPE 2.12, HEPG2TOX_R_SQUARED 0.868, PBLUC_HILL_SLOPE 86, PBLUC_R_SQUARED 0.219, read-out: LUCIFERASE INFECTION ASSAY - IC50): 5.28 |
| O=c1nc(CN2CCN(c3ccc(C(F)(F)F)cn3)CC2)[nH]c2ccccc12 | < 5.00 | > 10 | – |
| Cc1cc(NC(=S)NNC(=O)c2cccnc2Oc2ccccc2)ccc1Br | < 5.14 | > 7.22 | – |
| COc1ccc(/C=C2\CCCC3C2=NN(C(=O)Cn2cc(C(F)(F)F)ccc2=O)C3c2ccc(OC)cc2)cc1 (stereo not drawn) | – | 8.1 | pIC50 (PBLUC_HILL_SLOPE 4.26, PBLUC_R_SQUARED 0.126, read-out: LUCIFERASE INFECTION ASSAY - IC50): 5.32 |

| Compound | pIC50 [1] | IC90 [µM] | further results |
| --- | --- | --- | --- |
| O=C(Nc1ccc(Cl)cc1)n1ncc(Sc2ccc(Cl)cc2)c1-c1ccc(Cl)cc1 | < 5.16 | > 6.95 | – |
| COc1cccc(Nc2ncc(C(=O)c3cccc(-c4cccnc4)c3)[nH]2)c1 | – | 0.376 | pIC50 (HEPG2TOX_HILL_SLOPE 1.65, HEPG2TOX_R_SQUARED 0.891, PBLUC_HILL_SLOPE 14.3, PBLUC_R_SQUARED 0.795, read-out: LUCIFERASE INFECTION ASSAY - IC50): 6.49 |
| Cc1nc(N2CCCCC2)sc1C(=O)c1ccc(SCc2cc(Cl)cc3c2OCOC3)c([N+](=O)[O-])c1 | < 5.00 | > 10 | – |
| Cc1ccc(NC(=O)c2cccc(-c3ccc(O)cc3)c2)cc1Cl | – | 4.26 | pIC50 (HEPG2TOX_HILL_SLOPE 17.8, HEPG2TOX_R_SQUARED 0.895, PBLUC_HILL_SLOPE 28.1, PBLUC_R_SQUARED 0.516, read-out: LUCIFERASE INFECTION ASSAY - IC50): 5.40 |
| CN(C)CCNC(=O)c1ccc(-c2cc(-c3cc(F)c(F)c(F)c3)cnc2N)cc1 | – | > 7.96 | pIC50 (PBLUC_HILL_SLOPE 12.1, PBLUC_R_SQUARED 0.329, read-out: LUCIFERASE INFECTION ASSAY - IC50): 5.13 |
| N#Cc1ccc(Cc2cnc(NC(=O)c3ccc4ncsc4c3)s2)cc1 | – | 1.82 | pIC50 (HEPG2TOX_HILL_SLOPE 1.13, HEPG2TOX_R_SQUARED 0.797, PBLUC_HILL_SLOPE 1.77, PBLUC_R_SQUARED 0.567, read-out: LUCIFERASE INFECTION ASSAY - IC50): 6.28 |
| Cc1cccc(-c2cn3c(-c4cccc(O)c4)cnc3cn2)c1C | – | > 10.5 | pIC50 (PBLUC_HILL_SLOPE 4.97, PBLUC_R_SQUARED 0.533, read-out: LUCIFERASE INFECTION ASSAY - IC50): 5.08 |
| CCOc1cc2c(cc1CNC(=O)Cn1cnc3c(cnn3-c3ccccc3)c1=O)OC(C)C2 (stereo not drawn) | – | > 10 | pIC50 (FFLUC_HILL_SLOPE 95.3, FFLUC_R_SQUARED 0.504, HEPG2TOX_HILL_SLOPE 1.9, HEPG2TOX_R_SQUARED 0.749, read-out: LUCIFERASE INFECTION ASSAY - IC50): < 5.00 |
| COc1cccc(C(CNc2nc(C)nc3sc4c(c23)CCCCC4)N2CCCC2)c1 (stereo not drawn) | < 5.00 | > 10 | – |
| CN(C)CCNc1ccnc2c(-c3ccccc3Oc3ccccc3)cnn12 | – | > 8.84 | pIC50 (PBLUC_HILL_SLOPE 1.31, PBLUC_R_SQUARED 0.651, read-out: LUCIFERASE INFECTION ASSAY - IC50): 5.29 |
| COc1ccc(-c2cc(NC=O)c3ncc(-c4cc(OC)c(OC)c(OC)c4)n3c2)c(OC)c1 | – | 5.96 | pIC50 (FFLUC_HILL_SLOPE 13.2, FFLUC_R_SQUARED 0.535, HEPG2TOX_HILL_SLOPE 2.06, HEPG2TOX_R_SQUARED 0.871, PBLUC_HILL_SLOPE 2.04, PBLUC_R_SQUARED 0.466, read-out: LUCIFERASE INFECTION ASSAY - IC50): 5.69 |
| COc1cc2[nH]c(CSc3nnc(-c4ccccc4F)n3C3CC3)nc(=O)c2cc1OC | – | > 10 | pIC50 (PBLUC_HILL_SLOPE 1.81, PBLUC_R_SQUARED 0.0649, read-out: LUCIFERASE INFECTION ASSAY - IC50): < 5.00 |
| CN1/C(=C\C(=O)C[n+]2cccc(Br)c2)C(C)(C)c2ccccc21 | – | > 10 | pIC50 (HEPG2TOX_HILL_SLOPE 3.72, HEPG2TOX_R_SQUARED 0.897, PBLUC_HILL_SLOPE 2.59, PBLUC_R_SQUARED 0.674, read-out: LUCIFERASE INFECTION ASSAY - IC50): 5.34 |
| CS(=O)(=O)c1ccc(CN2CCN3C(C(=O)Nc4cccc(C(F)(F)F)c4)=COC3=NC2=O)cc1 | < 5.00 | > 10 | – |
| CC(c1nc2ccccc2s1)N(C)c1ncnc2sc3c(c12)CCC3 (stereo not drawn) | – | > 10 | pIC50 (FFLUC_HILL_SLOPE 2.52, FFLUC_R_SQUARED 0.413, HEPG2TOX_HILL_SLOPE 5.64, HEPG2TOX_R_SQUARED 0.118, PBLUC_HILL_SLOPE 2.14, PBLUC_R_SQUARED 0.426, read-out: LUCIFERASE INFECTION ASSAY - IC50): < 5.00 |
| O=C(Nc1nc2ccccn2c1C(=O)NC1CCCCC1)c1ccccc1 | – | 3.28 | pIC50 (FFLUC_HILL_SLOPE 12.3, FFLUC_R_SQUARED 0.522, HEPG2TOX_HILL_SLOPE 1.9, HEPG2TOX_R_SQUARED 0.962, PBLUC_HILL_SLOPE 15.5, PBLUC_R_SQUARED 0.368, read-out: LUCIFERASE INFECTION ASSAY - IC50): 5.55 |
| CCCS(=O)(=O)/C(C#N)=C/c1ccc(-c2ccc(OC)cc2)s1 | 5.96 | 2.37 | – |
| O=C(Nc1ccc(F)cc1)c1nnsc1S(=O)(=O)c1ccc(Cl)cc1 | 5.18 | > 8.29 | – |
| CCN1CCN(c2ccc(Cl)cc2NC(=O)c2sc(-c3ccccc3)nc2C)CC1 | – | 4.23 | pIC50 (PBLUC_HILL_SLOPE 12.2, PBLUC_R_SQUARED 0.286, read-out: LUCIFERASE INFECTION ASSAY - IC50): 5.45 |
